Patent US20040235863A1, “Morpholine-bridged pyrazolopyridine derivatives” (priority 2001, published 2004)

System: rabbit aorta rings contracted with phenylephrine
Assay: Vasorelaxant effect in vitro
Design: species or system Rabbits
Conditions: Oryctolagus cuniculus; isolated rabbit aorta rings, phenylephrine-induced contraction, concentration reducing height of contraction by 50%
Protocol: Vasorelaxant Effect in Vitro
Rabbits are stunned by a blow to the back of the neck and are exsanguinated. The aorta is removed, freed of adherent tissue, divided into rings 1.5 mm wide and put singly under tension in 5 ml organ baths containing carbogen-gassed Krebs-Henseleit solution at 37° C. with the following composition (mM): NaCl: 119; KCl: 4.8; CaCl2×2H2O: 1; MgSO4×7H2O: 1.4; KH2PO4: 1.2; NaHCO3: 25; glucose: 10. The force of contraction is detected with Statham UC2 cells, amplified and digitized via A/D converters (DAS-1802 HC, Keithley Instruments Munich) and recorded in parallel on chart recorders. A contraction is generated by adding phenylephrine to the bath cumulatively in increasing concentration. After several control cycles, the substance to be investigated is investigated in each further run in increasing dosage in each case, and the height of the contraction is compared with the height of the contraction reached in the last preceding run. The concentration necessary to reduce the height of the control value by 50% (IC50) is calculated from this. The standard application volume is 5 μl, and the DMSO content in the bath solution corresponds to 0.1%.

## Nc1nc(-c2nn(Cc3ccccc3F)c3ncccc23)ncc1N1C2CCCC1COC2 [Example 2, 2-[1-(2-Fluorobenzyl)-1H-pyrazolo[3,4-b]pyridin-3-yl]-5-(3-oxa-9-azabicyclo[3.3.1]non-9-yl)-4-pyrimidinylamine]
  IC50: 300 nM
